Patent publication US11571411B2, “Use of a bisamide derivative of malonic acid for treating allergic and other diseases in humans and animals” (PHARMENTERPRISES ALLERGY LLC, priority 2018, dated 2023)

Tested on: histamine-induced nasal congestion model
Assay: Histamine-induced nasal congestion model in dogs, oral administration
Format: in vivo, Beagle dogs
Protocol: A histamine-induced nasal congestion model in dogs was performed according to the standard procedure [Tiniakov R. L., Tiniakova O. P., McLeod R. L., Hey J. A., Yeates D. B. Canine model of nasal congestion and allergic rhinitis//J Appl Physiol. 2003. V.94(5). P.1821-1828]. Beagle dogs were injected in the nasal cavity with a 5% histamine solution in a volume of 250 μl/nostril. The volume of the nasal cavity of the right and left nostrils was measured using a rhinometer before and 5, 10, 15, 20, 30, 40, 50 and 60 minutes after administration of histamine. Three experiments were performed, in which Compound I was administered orally once at different times: 1) 30 minutes before administration of histamine; 2) 1 hour before administration of histamine; and 3) 6 hours before administration of histamine, and one experiment was performed, in which Compound I was administered orally once daily for 14 days, the last administration was carried out 1 hour before administration of histamine.

[1] = oral 1 hour before histamine, 0.005 mg/kg, 5 minutes after histamine
[2] = oral 1 hour before histamine, 0.005 mg/kg, 10 minutes after histamine
[3] = oral 1 hour before histamine, 0.005 mg/kg, 15 minutes after histamine
[4] = oral 1 hour before histamine, 0.005 mg/kg, 20 minutes after histamine
[5] = oral 1 hour before histamine, 0.005 mg/kg, 30 minutes after histamine
[6] = oral 1 hour before histamine, 0.005 mg/kg, 40 minutes after histamine
[7] = oral 1 hour before histamine, 0.005 mg/kg, 50 minutes after histamine
[8] = oral 1 hour before histamine, 0.005 mg/kg, 60 minutes after histamine
[9] = oral 1 hour before histamine, 0.005 mg/kg, before histamine administration
[10] = oral 1 hour before histamine, 0.05 mg/kg, 5 minutes after histamine
[11] = oral 1 hour before histamine, 0.05 mg/kg, 10 minutes after histamine
[12] = oral 1 hour before histamine, 0.05 mg/kg, 15 minutes after histamine
[13] = oral 1 hour before histamine, 0.05 mg/kg, 20 minutes after histamine
[14] = oral 1 hour before histamine, 0.05 mg/kg, 30 minutes after histamine
[15] = oral 1 hour before histamine, 0.05 mg/kg, 40 minutes after histamine
[16] = oral 1 hour before histamine, 0.05 mg/kg, 50 minutes after histamine
[17] = oral 1 hour before histamine, 0.05 mg/kg, 60 minutes after histamine
[18] = oral 1 hour before histamine, 0.05 mg/kg, before histamine administration
[19] = oral 1 hour before histamine, 0.54 mg/kg, 5 minutes after histamine
[20] = oral 1 hour before histamine, 0.54 mg/kg, 10 minutes after histamine
[21] = oral 1 hour before histamine, 0.54 mg/kg, 15 minutes after histamine
[22] = oral 1 hour before histamine, 0.54 mg/kg, 20 minutes after histamine
[23] = oral 1 hour before histamine, 0.54 mg/kg, 30 minutes after histamine
[24] = oral 1 hour before histamine, 0.54 mg/kg, 40 minutes after histamine
[25] = oral 1 hour before histamine, 0.54 mg/kg, 50 minutes after histamine
[26] = oral 1 hour before histamine, 0.54 mg/kg, 60 minutes after histamine
[27] = oral 1 hour before histamine, 0.54 mg/kg, before histamine administration
[28] = oral 6 hours before histamine, 0.005 mg/kg, 5 minutes after histamine
[29] = oral 6 hours before histamine, 0.005 mg/kg, 10 minutes after histamine
[30] = oral 6 hours before histamine, 0.005 mg/kg, 15 minutes after histamine
[31] = oral 6 hours before histamine, 0.005 mg/kg, 20 minutes after histamine
[32] = oral 6 hours before histamine, 0.005 mg/kg, 30 minutes after histamine
[33] = oral 6 hours before histamine, 0.005 mg/kg, 40 minutes after histamine
[34] = oral 6 hours before histamine, 0.005 mg/kg, 50 minutes after histamine
[35] = oral 6 hours before histamine, 0.005 mg/kg, 60 minutes after histamine
[36] = oral 6 hours before histamine, 0.005 mg/kg, before histamine administration
[37] = oral 6 hours before histamine, 0.05 mg/kg, 5 minutes after histamine
[38] = oral 6 hours before histamine, 0.05 mg/kg, 10 minutes after histamine
[39] = oral 6 hours before histamine, 0.05 mg/kg, 15 minutes after histamine
[40] = oral 6 hours before histamine, 0.05 mg/kg, 20 minutes after histamine
[41] = oral 6 hours before histamine, 0.05 mg/kg, 30 minutes after histamine
[42] = oral 6 hours before histamine, 0.05 mg/kg, 40 minutes after histamine
[43] = oral 6 hours before histamine, 0.05 mg/kg, 50 minutes after histamine
[44] = oral 6 hours before histamine, 0.05 mg/kg, 60 minutes after histamine
[45] = oral 6 hours before histamine, 0.05 mg/kg, before histamine administration
[46] = oral 6 hours before histamine, 0.54 mg/kg, 5 minutes after histamine
[47] = oral 6 hours before histamine, 0.54 mg/kg, 10 minutes after histamine
[48] = oral 6 hours before histamine, 0.54 mg/kg, 15 minutes after histamine
[49] = oral 6 hours before histamine, 0.54 mg/kg, 20 minutes after histamine
[50] = oral 6 hours before histamine, 0.54 mg/kg, 30 minutes after histamine

O=C(CC(=O)NCCc1cnc[nH]1)NCCc1cnc[nH]1 [Compound I, N,N′-bis(2-(1H-imidazol-5-yl)ethyl)malonamide]
onset of the therapeutic effect (after a single oral administration, dogs): ≤ 30 min
Volume of the nasal cavity, left nostril [1]: 3.1 ± 0.2$ cm^3
Volume of the nasal cavity, right nostril [1]: 3.1 ± 0.5$ cm^3
Volume of the nasal cavity, left nostril [2]: 2.4 ± 0.4$ cm^3
Volume of the nasal cavity, right nostril [2]: 2.1 ± 0.1$ cm^3
Volume of the nasal cavity, left nostril [3]: 2.2 ± 0.2$ cm^3
Volume of the nasal cavity, right nostril [3]: 2.8 ± 0.5$ cm^3
Volume of the nasal cavity, left nostril [4]: 2.3 ± 0.14$ cm^3
Volume of the nasal cavity, right nostril [4]: 2.6 ± 0.4$ cm^3
Volume of the nasal cavity, left nostril [5]: 2.0 ± 0.2$ cm^3
Volume of the nasal cavity, right nostril [5]: 3.0 ± 0.5$ cm^3
Volume of the nasal cavity, left nostril [6]: 3.6 ± 0.2 cm^3
Volume of the nasal cavity, right nostril [6]: 3.4 ± 0.2$ cm^3
Volume of the nasal cavity, left nostril [7]: 3.3 ± 0.2$ cm^3
Volume of the nasal cavity, right nostril [7]: 3.7 ± 0.24$ cm^3
Volume of the nasal cavity, left nostril [8]: 3.4 ± 0.1$ cm^3
Volume of the nasal cavity, right nostril [8]: 3.5 ± 0.2$ cm^3
Volume of the nasal cavity, left nostril [9]: 3.9 ± 0.2 cm^3
Volume of the nasal cavity, right nostril [9]: 4.3 ± 0.2 cm^3
Volume of the nasal cavity, left nostril [10]: 2.8 ± 0.1$ cm^3
Volume of the nasal cavity, right nostril [10]: 2.8 ± 0.3$ cm^3
Volume of the nasal cavity, left nostril [11]: 3.1 ± 0.24$ cm^3
Volume of the nasal cavity, right nostril [11]: 3.5 ± 0.24$ cm^3
Volume of the nasal cavity, left nostril [12]: 3.1 ± 0.14$ cm^3
Volume of the nasal cavity, right nostril [12]: 2.6 ± 0.2$ cm^3
Volume of the nasal cavity, left nostril [13]: 2.5 ± 0.14$ cm^3
Volume of the nasal cavity, right nostril [13]: 2.5 ± 0.14$ cm^3
Volume of the nasal cavity, left nostril [14]: 3.6 ± 0.24 cm^3
Volume of the nasal cavity, right nostril [14]: 3.5 ± 0.24 cm^3
Volume of the nasal cavity, left nostril [15]: 3.7 ± 0.34 cm^3
Volume of the nasal cavity, right nostril [15]: 3.7 ± 0.24 cm^3
Volume of the nasal cavity, left nostril [16]: 3.2 ± 0.1$ cm^3
Volume of the nasal cavity, right nostril [16]: 3.2 ± 0.1$ cm^3
Volume of the nasal cavity, left nostril [17]: 3.2 ± 0.1$ cm^3
Volume of the nasal cavity, right nostril [17]: 3.5 ± 0.1$ cm^3
Volume of the nasal cavity, left nostril [18]: 4.0 ± 0.3 cm^3
Volume of the nasal cavity, right nostril [18]: 4.2 ± 0.2 cm^3
Volume of the nasal cavity, left nostril [19]: 2.6 ± 0.1$ cm^3
Volume of the nasal cavity, right nostril [19]: 3.0 ± 0.4$ cm^3
Volume of the nasal cavity, left nostril [20]: 3.4 ± 0.14$ cm^3
Volume of the nasal cavity, right nostril [20]: 3.0 ± 0.24$ cm^3
Volume of the nasal cavity, left nostril [21]: 2.5 ± 0.2$ cm^3
Volume of the nasal cavity, right nostril [21]: 3.0 ± 0.24$ cm^3
Volume of the nasal cavity, left nostril [22]: 2.5 ± 0.24$ cm^3
Volume of the nasal cavity, right nostril [22]: 2.8 ± 0.34$ cm^3
Volume of the nasal cavity, left nostril [23]: 3.8 ± 0.24 cm^3
Volume of the nasal cavity, right nostril [23]: 3.6 ± 0.24$ cm^3
Volume of the nasal cavity, left nostril [24]: 3.6 ± 0.14$ cm^3
Volume of the nasal cavity, right nostril [24]: 3.6 ± 0.24$ cm^3
Volume of the nasal cavity, left nostril [25]: 3.3 ± 0.3$ cm^3
Volume of the nasal cavity, right nostril [25]: 3.4 ± 0.1$ cm^3
Volume of the nasal cavity, left nostril [26]: 3.3 ± 0.2$ cm^3
Volume of the nasal cavity, right nostril [26]: 3.2 ± 0.2$ cm^3
Volume of the nasal cavity, left nostril [27]: 4.1 ± 0.1 cm^3
Volume of the nasal cavity, right nostril [27]: 4.4 ± 0.1 cm^3
Volume of the nasal cavity, left nostril [28]: 2.0 ± 0.3$ cm^3
Volume of the nasal cavity, right nostril [28]: 2.1 ± 0.3$ cm^3
Volume of the nasal cavity, left nostril [29]: 1.9 ± 0.1$ cm^3
Volume of the nasal cavity, right nostril [29]: 2.0 ± 0.1$ cm^3
Volume of the nasal cavity, left nostril [30]: 2.4 ± 0.24$ cm^3
Volume of the nasal cavity, right nostril [30]: 2.4 ± 0.14$ cm^3
Volume of the nasal cavity, left nostril [31]: 3.2 ± 0.24$ cm^3
Volume of the nasal cavity, right nostril [31]: 3.2 ± 0.24$ cm^3
Volume of the nasal cavity, left nostril [32]: 3.3 ± 0.14$ cm^3
Volume of the nasal cavity, right nostril [32]: 3.4 ± 0.14$ cm^3
Volume of the nasal cavity, left nostril [33]: 3.3 ± 0.2$ cm^3
Volume of the nasal cavity, right nostril [33]: 3.4 ± 0.1$ cm^3
Volume of the nasal cavity, left nostril [34]: 3.4 ± 0.1$ cm^3
Volume of the nasal cavity, right nostril [34]: 3.5 ± 0.2$ cm^3
Volume of the nasal cavity, left nostril [35]: 3.6 ± 0.2$ cm^3
Volume of the nasal cavity, right nostril [35]: 3.4 ± 0.2$ cm^3
Volume of the nasal cavity, left nostril [36]: 4.4 ± 0.1 cm^3
Volume of the nasal cavity, right nostril [36]: 4.4 ± 0.2 cm^3
Volume of the nasal cavity, left nostril [37]: 2.2 ± 0.1$ cm^3
Volume of the nasal cavity, right nostril [37]: 2.2 ± 0.2$ cm^3
Volume of the nasal cavity, left nostril [38]: 2.4 ± 0.2$ cm^3
Volume of the nasal cavity, right nostril [38]: 2.3 ± 0.2$ cm^3
Volume of the nasal cavity, left nostril [39]: 2.0 ± 0.24$ cm^3
Volume of the nasal cavity, right nostril [39]: 2.0 ± 0.14$ cm^3
Volume of the nasal cavity, left nostril [40]: 3.4 ± 0.14$ cm^3
Volume of the nasal cavity, right nostril [40]: 3.2 ± 0.24$ cm^3
Volume of the nasal cavity, left nostril [41]: 3.4 ± 0.24$ cm^3
Volume of the nasal cavity, right nostril [41]: 3.4 ± 0.14$ cm^3
Volume of the nasal cavity, left nostril [42]: 3.1 ± 0.1$ cm^3
Volume of the nasal cavity, right nostril [42]: 3.1 ± 0.1$ cm^3
Volume of the nasal cavity, left nostril [43]: 3.4 ± 0.1$ cm^3
Volume of the nasal cavity, right nostril [43]: 3.4 ± 0.1$ cm^3
Volume of the nasal cavity, left nostril [44]: 3.6 ± 0.1$ cm^3
Volume of the nasal cavity, right nostril [44]: 3.5 ± 0.1$ cm^3
Volume of the nasal cavity, left nostril [45]: 4.2 ± 0.2 cm^3
Volume of the nasal cavity, right nostril [45]: 4.1 ± 0.1 cm^3
Volume of the nasal cavity, left nostril [46]: 2.7 ± 0.2$ cm^3
Volume of the nasal cavity, right nostril [46]: 2.7 ± 0.3$ cm^3
Volume of the nasal cavity, left nostril [47]: 2.8 ± 0.24$ cm^3
Volume of the nasal cavity, right nostril [47]: 2.8 ± 0.24$ cm^3
Volume of the nasal cavity, left nostril [48]: 2.8 ± 0.14$ cm^3
Volume of the nasal cavity, right nostril [48]: 2.8 ± 0.24$ cm^3
Volume of the nasal cavity, left nostril [49]: 3.4 ± 0.14$ cm^3
Volume of the nasal cavity, right nostril [49]: 3.5 ± 0.14$ cm^3
Volume of the nasal cavity, left nostril [50]: 3.5 ± 0.24$ cm^3
Volume of the nasal cavity, right nostril [50]: 3.4 ± 0.14$ cm^3
